Legend:
[1] = cited from earlier work
[2] = target: T1, BACE1 (Homo sapiens, UniProt P56817); test: Fluorometric BACE1 inhibition assay; format: biochemical; details: three independent experiments; log dose inhibition curve; read-out: IC50 (mean ± SD) BACE1
T1 construct: purchased Invitrogen (Pan Vera, Madison, WI, USA)
Procedure: Fluorometric assays with a recombinant human BACE1 or TACE were conducted according to manufacturer instructions. […] The inhibition ratio was obtained using the following equation:Inhibition (%) = [1 − (S − S0)/(C − C0)] × 100 where C was the fluorescence of control (enzyme, assay buffer, and substrate) after 60 min of incubation, C0 was the fluorescence of control at time 0, S was the fluorescence of tested samples (enzyme, sample solution, and substrate) after 60 min of incubation, and S0 was the fluorescence of the tested samples at time 0.

[3] = target: T2, AChE from Electrophorus electricus (electric eel) (Electrophorus electricus, UniProt O42275); test: Colorimetric AChE inhibition assay (DTNB); format: biochemical; details: three independent experiments; log dose inhibition curve; read-out: IC50 (mean ± SD) AChE
T2 construct: purchased Sigma-Aldrich (St. Louis, MO, USA)
T2 sequence (O42275 24-633): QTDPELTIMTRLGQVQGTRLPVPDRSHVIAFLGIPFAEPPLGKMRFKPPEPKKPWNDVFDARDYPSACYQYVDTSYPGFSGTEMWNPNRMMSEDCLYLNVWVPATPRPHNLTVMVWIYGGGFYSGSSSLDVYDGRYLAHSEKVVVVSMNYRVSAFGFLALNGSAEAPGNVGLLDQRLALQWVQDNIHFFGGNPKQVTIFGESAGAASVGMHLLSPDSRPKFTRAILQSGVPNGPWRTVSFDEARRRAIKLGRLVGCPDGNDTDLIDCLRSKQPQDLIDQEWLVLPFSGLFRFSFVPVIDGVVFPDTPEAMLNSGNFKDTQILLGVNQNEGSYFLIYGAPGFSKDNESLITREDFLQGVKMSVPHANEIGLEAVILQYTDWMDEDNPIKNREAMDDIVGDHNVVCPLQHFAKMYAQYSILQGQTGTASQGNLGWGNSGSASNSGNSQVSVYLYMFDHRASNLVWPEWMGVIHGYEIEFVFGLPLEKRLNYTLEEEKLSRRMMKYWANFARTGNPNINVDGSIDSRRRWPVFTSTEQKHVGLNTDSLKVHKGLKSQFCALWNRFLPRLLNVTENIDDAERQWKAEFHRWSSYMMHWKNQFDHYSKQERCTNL
Procedure: The colorimetric assays, including AChE, trypsin, chymotrypsin, and elastase were assayed according to previously described methods [36]. […] All reactions were performed in 96-well plates in triplicate and recorded using a microplate spectrophotometer.

[4] = tested on: HIV-reverse transcriptase; details: compared with 8,4′′′-dieckol (diphenyl ether linkage); cited from earlier work
[5] = target: hyaluronidase; details: previous study; read-out: IC50 against hyaluronidase; cited from earlier work
[6] = target: T3, human recombinant TACE (α-secretase) (Homo sapiens, UniProt P78536); test: Fluorometric TACE inhibition assay; format: biochemical; details: mean ± SD, read-out: Inhibitory activity TACE (α-Secretase); for inhibition at 50 µM: 50 μM compound; for inhibition at 100 µM: 100 μM compound
T3 construct: purchased R&D Systems (Minneapolis, MN, USA)
T3 sequence (P78536 215-824): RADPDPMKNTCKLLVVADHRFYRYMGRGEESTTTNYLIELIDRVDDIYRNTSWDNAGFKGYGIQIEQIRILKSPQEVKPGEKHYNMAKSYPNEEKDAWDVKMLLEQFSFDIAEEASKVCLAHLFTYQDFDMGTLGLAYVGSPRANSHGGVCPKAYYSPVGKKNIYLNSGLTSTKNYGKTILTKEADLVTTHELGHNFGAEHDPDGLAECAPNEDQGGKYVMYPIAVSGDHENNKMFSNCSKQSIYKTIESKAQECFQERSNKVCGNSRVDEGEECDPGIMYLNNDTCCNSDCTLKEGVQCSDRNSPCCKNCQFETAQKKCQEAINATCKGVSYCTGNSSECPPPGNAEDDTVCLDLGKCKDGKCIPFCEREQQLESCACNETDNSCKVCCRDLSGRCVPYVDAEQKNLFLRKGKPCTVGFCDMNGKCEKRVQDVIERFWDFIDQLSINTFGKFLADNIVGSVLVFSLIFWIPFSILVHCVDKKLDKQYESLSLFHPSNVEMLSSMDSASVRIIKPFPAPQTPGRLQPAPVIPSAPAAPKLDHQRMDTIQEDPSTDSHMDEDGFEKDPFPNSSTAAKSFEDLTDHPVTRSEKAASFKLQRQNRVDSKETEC
Procedure: (§1) Fluorometric assays with a recombinant human BACE1 or TACE were conducted according to manufacturer instructions. Briefly, reaction mixtures containing human recombinant BACE1 (1.0 U/mL), the substrate (75 μM in 50 mM ammonium bicarbonate), and phlorotannins dissolved in an assay buffer (50 mM sodium acetate, pH 4.5) were incubated in darkness for 60 min at 25 °C in well plates. The increase in fluorescence intensity produced by substrate hydrolysis was observed on a fluorescence microplate reader with excitation and emission wavelengths of 545 and 590 nm, respectively. The inhibition ratio was obtained using the following equation:Inhibition (%) = [1 − (S − S0)/(C − C0)] × 100 where C was the fluorescence of control (enzyme, assay buffer, and substrate) after 60 min of incubation, C0 was the fluorescence of control at time 0, S was the fluorescence of tested samples (enzyme, sample solution, and substrate) after 60 min of incubation, and S0 was the fluorescence of the tested samples at time 0.
A human recombinant TACE (0.1 ppm in 25 mM Tris buffer), the substrate (APP peptide […] using EDANS/DABCYL), and phlorotannins were dissolved in an assay buffer, which were then combined and incubated for 60 min in the dark at 25 °C. The increase in fluorescence intensity produced by substrate hydrolysis was observed on a fluorescence microplate reader with excitation and emission wavelengths of 320 and 405 nm, respectively.

[7] = target: T4, elastase (Sus scrofa, UniProt P00772); test: Colorimetric elastase inhibition assay; format: biochemical; details: mean ± SD, read-out: Inhibitory activity Elastase; for inhibition at 50 µM: 50 μM compound; for inhibition at 100 µM: 100 μM compound
T4 construct: purchased Sigma-Aldrich (St. Louis, MO, USA)
T4 sequence (P00772 27-266): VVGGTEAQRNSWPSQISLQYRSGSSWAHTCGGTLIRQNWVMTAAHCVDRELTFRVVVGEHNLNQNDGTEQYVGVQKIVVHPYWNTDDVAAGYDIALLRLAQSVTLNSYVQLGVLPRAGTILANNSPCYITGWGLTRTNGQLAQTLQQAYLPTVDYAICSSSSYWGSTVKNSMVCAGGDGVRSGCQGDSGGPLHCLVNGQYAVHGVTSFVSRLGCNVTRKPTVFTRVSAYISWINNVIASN
Procedure: (§2) The colorimetric assays, including AChE, trypsin, chymotrypsin, and elastase were assayed according to previously described methods. The hydrolysis of AChE was monitored according to the formation of yellow 5-thio-2-nitrobenzoate anions at 405 nm for 15 min, which were produced by the reaction of DTNB with thiocholine released from ACh. All reactions were performed in 96-well plates in triplicate and recorded using a microplate spectrophotometer.
(§3) N-benzoyl-L-Arg-pNA, N-benzoyl-L-Tyr-pNA, and N-succinyl-Ala-Ala-Ala-pNA were used as substrates to assay the inhibition of trypsin, chymotrypsin, and elastase, respectively. Enzyme, Tris-HCl buffer (0.05 M, in 0.02 M CaCl2, pH 8.2), and phlorotannins were incubated for 10 min at 25 °C; then, substrate was added for 30 min at 37 °C. The absorbance was recorded at 410 nm. The inhibition ratio was obtained using the following equation:Inhibition (%) = {[1 − (A − B)]/control} × 100 where A was the absorbance of the control (enzyme, assay buffer, and substrate) after 60 min of incubation, and B was the absorbance of tested sample (assay buffer and sample solution) after 60 min of incubation.

[8] = tested on: trypsin; test: Colorimetric trypsin inhibition assay; format: biochemical; details: mean ± SD
Procedure: as §2, §3

[9] = target: T5, AChE (Electrophorus electricus, UniProt O42275); test: Enzyme kinetic study of AChE inhibition (Dixon and Lineweaver–Burk plots); format: biochemical, Electrophorus electricus (electric eel); details: for Ki: Dixon plot; for Inhibition Mode AChE: Lineweaver–Burk plot
T5 construct: purchased Sigma-Aldrich (St. Louis, MO, USA)
T5 sequence (O42275 24-633): as the sequence (O42275 24-633) above
Procedure: as §2
(§4) To evaluate the kinetic mechanisms of phlorotannins towards BACE1 and AChE, Dixon and Lineweaver–Burk plots were conducted by various concentrations of substrate and inhibitors. Kinetic parameters such as Ki, Vmax, and Km values were calculated by Sigma Plot 12.3 (Systat Software, Inc., San Jose, CA, USA)

[10] = target: T6, chymotrypsin (Bos taurus, UniProt P00766); test: Colorimetric chymotrypsin inhibition assay; format: biochemical; details: mean ± SD, read-out: Inhibitory activity Chymotrypsin; for inhibition at 50 µM: 50 μM compound; for inhibition at 100 µM: 100 μM compound
T6 construct: purchased Sigma-Aldrich (St. Louis, MO, USA)
Procedure: as §2, §3

[11] = target: T1, BACE1; test: Enzyme kinetic study of BACE1 inhibition (Dixon and Lineweaver–Burk plots); format: biochemical; details: for Ki: Dixon plot; for Inhibition Mode BACE1: Lineweaver–Burk plot
Procedure: as §1, §4

[12] = tested on: BACE1; details: phlorotannins from Eisenia bicyclis; cited from earlier work
[13] = tested on: murine hippocampus neuronal cells; details: cited from earlier work
[14] = cited from earlier work; remark: listed apart in the source
[15] = tested on: ethanol-induced memory impairment mice; details: oral administration, 10 mg/kg; cited from earlier work

T1 sequence (P56817 46-501): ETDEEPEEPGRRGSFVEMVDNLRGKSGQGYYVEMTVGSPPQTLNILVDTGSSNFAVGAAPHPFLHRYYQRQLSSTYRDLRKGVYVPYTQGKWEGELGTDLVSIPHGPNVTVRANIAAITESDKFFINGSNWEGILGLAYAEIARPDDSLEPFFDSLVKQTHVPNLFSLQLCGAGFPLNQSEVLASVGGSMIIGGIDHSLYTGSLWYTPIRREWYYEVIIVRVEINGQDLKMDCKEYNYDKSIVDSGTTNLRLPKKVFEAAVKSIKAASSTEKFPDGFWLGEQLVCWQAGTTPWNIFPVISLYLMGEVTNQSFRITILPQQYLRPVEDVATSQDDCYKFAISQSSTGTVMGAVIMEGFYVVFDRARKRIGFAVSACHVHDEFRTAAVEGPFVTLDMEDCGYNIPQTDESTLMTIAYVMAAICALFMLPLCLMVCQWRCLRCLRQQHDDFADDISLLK

| SMILES | Lipinski's requirements for acceptable oral bioavailability [1] | IC50 [2] [µM] | IC50 [3] [µM] | IC50 [5] [µM] | inhibition at 50 µM [6] [%] | inhibition at 100 µM [6] [%] | inhibition at 50 µM [7] [%] | inhibition at 100 µM [7] [%] | Inhibitory activity Trypsin ([8]; 50 μM compound) [%] | Inhibitory activity Trypsin ([8]; 100 μM compound) [%] | Ki [9] [µM] | Inhibition Mode AChE [9] | inhibition at 50 µM [10] [%] | inhibition at 100 µM [10] [%] | Ki [11] [µM] | Inhibition Mode BACE1 [11] | H2O2-induced oxidative stress [13] | further results |
| --- | --- | --- | --- | --- | --- | --- | --- | --- | --- | --- | --- | --- | --- | --- | --- | --- | --- | --- |
| Oc1cc(O)cc(Oc2c(O)cc(O)c3c2Oc2c(cc(O)c(-c4c(O)cc5c(c4O)Oc4c(Oc6cc(O)cc(O)c6)c(O)cc(O)c4O5)c2O)O3)c1 [8,8′-Bieckol, 9-(3,5-dihydroxyphenoxy)-2-[9-(3,5-dihydroxyphenoxy)-1,3,6,8-tetrahydroxydibenzo-p-dioxin-2-yl]dibenzo-p-dioxin-1,3,6,8-tetrol] | have limitations on bioavailability | 1.62 ± 0.14 | 4.59 ± 0.32 | 40 | 11.1 ± 0.53 | 3.57 ± 0.05 | 5.26 ± 0.43 | 7.52 ± 0.24 | 2.98 ± 0.26 | −23.05 ± 0.32 | 11.4 | Competitive | 0.86 ± 0.02 | 0.33 ± 0.01 | 13.9 | Non-competitive |  | Inhibitory effect on HIV-reverse transcriptase relative to 8,4′′′-dieckol [4]: tenfold higher |
| Oc1cc(O)cc(Oc2c(O)cc(O)c3c2Oc2c(O)cc(Oc4c(O)cc(Oc5c(O)cc(O)c6c5Oc5c(O)cc(O)cc5O6)cc4O)cc2O3)c1 [Dieckol, 4-[4-[6-(3,5-dihydroxyphenoxy)-4,7,9-trihydroxydibenzo-p-dioxin-2-yl]oxy-3,5-dihydroxyphenoxy]dibenzo-p-dioxin-1,3,6,8-tetrol] | have limitations on bioavailability | 2.34 ± 0.1 | 5.69 ± 0.42 | 120 | 16.9 ± 1.01 | 18.3 ± 0.41 | 6.7 ± 0.85 | 6.2 ± 0.14 | 6.44 ± 0.76 | −16.64 ± 1.40 | 12.3 | Competitive | 4.39 ± 0.44 | 1.43 ± 0.02 | 20.1 | Non-competitive | suppressed H2O2-induced oxidative stress | BACE1 inhibitory effect, relative [12]: stronger than eckol; Penetration into the brain across the blood–brain barrier [14]: successfully penetrated into the brain via crossing the blood–brain barrier; Cognitive ability [15]: improved cognitive ability |
| Oc1cc(O)cc(Oc2c(O)cc(O)c3c2Oc2c(O)cc(O)cc2O3)c1 [Eckol, 4-(3,5-dihydroxyphenoxy)dibenzo-p-dioxin-1,3,6,8-tetrol] | meets Lipinski′s requirements for acceptable oral bioavailability | 7.67 ± 0.71 | 10 ± 0.94 | > 800 | 19.3 ± 1.52 | 10.6 ± 0.53 | 6.06 ± 0.13 | 4.37 ± 0.27 | 3.59 ± 0.57 | 4.73 ± 0.25 | 37.3 | Competitive | 1.48 ± 0.19 | 2.65 ± 0.06 | 31.2 | Non-competitive | suppressed H2O2-induced oxidative stress |  |

From paper PMC6410325, “Dual BACE1 and Cholinesterase Inhibitory Effects of Phlorotannins from Ecklonia cava—An In Vitro and in Silico Study” (Marine Drugs, 2019)
